{"source": "patent US20220362182A1", "about": "“METHODS FOR REVERSING HEPATIC STEATOSIS” (BRIGHTSEED, INC., priority 2020, published 2022)", "key": {"[1]": {"test_system": "CYP26A1 mRNA", "assay": "CYP26A1 mRNA in T6PNE cells", "type": "cell-based, human", "details": "2 days, 0.25 mM palmitate, NCT 10 μM, 4-OH-RA 20 μM", "experimental": "(§1) Quantitative PCR (Q-PCR) from in vitro cell culture experiments used total RNA purified using RNeasy Kits (Qiagen). For liver tissue samples, total RNA was isolated using Trizol (Invitrogen) and prepared for RNAseq (mouse liver DMSO and NCT, N=3). cDNA was amplified using 3 μg of total RNA using qScript cDNA SuperMix (Quanta BioSciences, Beverly, Mass., USA). QPCR analysis was performed using SYBR® Select Master Mix (Applied Biosystems) and ABI 7900HT (Applied Biosystems, Thermo Fisher Scientific). The Ct values of mRNA expression were then normalized to the 18 s rRNA values and are expressed as fold change over samples from mice fed normal chow for in vivo experiments or DMSO controls for cell culture experiments."}, "[2]": {"test_system": "HNF4a mRNA", "assay": "HNF4a mRNA in primary human hepatocytes", "type": "cell-based", "details": "high fat media, 5, 15, 40 µM, Day 4 to Day 10", "experimental": "(§2) Experiments with primary human hepatocytes were performed by CN-Bio (Cambridge, UK). Primary human hepatocytes (PHHs), human Kupffer cells (HKs) and human stellate cells (HSCs) were seeded onto CN-Bio's PhysioMimix LC12 MPS culture plates at 6×10^5 cells for PHHs and 6×10^4 cells for HKs and HSCs in 1.6 ml of CN-Bio's HEP-lean media with 5% FCS. Throughout the experiment the cells were maintained at a flow rate of 1 μl/s. After 24 h (Day 1) of seeding, the media was changed to HEP-lean media and the cells were incubated until day 4 to allow the cells to form microtissues. At day 4 post seeding, media was changed to HEP-fat media and treated with DMSO or NCT (5, 15, 40 μM). Media was replaced on days 6 and 8. Cells were harvested on day 10 for RNA extraction. Data are presented as mean ±SEM of three or more samples as indicated. Statistical significance was assessed using Student's t-test, ANOVA or R^2 coefficient of correlation."}, "[3]": {"test_system": "CYP26A1 mRNA", "assay": "CYP26a1 mRNA in primary human hepatocytes", "type": "cell-based", "details": "high fat media, 5, 15, 40 µM, Day 4 to Day 10", "experimental": "as §2"}, "[4]": {"test_system": "SPNS2 mRNA", "assay": "SPNS2 mRNA in primary human hepatocytes", "type": "cell-based", "details": "high fat media, 5, 15, 40 µM, Day 4 to Day 10", "experimental": "as §2"}, "[5]": {"test_system": "dihydroceramides", "assay": "lipidomic analysis of ceramides and dihydroceramides in T6PNE cells", "type": "cell-based, human", "details": "2 days after treatment", "experimental": "(§3) Ceramides and dihydroceramides were measured in the UCSD Lipidomics Core Facility as previously described (Quehenberger et al.). Briefly, samples were extracted using the butanol: methanol (BUME) method. The lipid layer was collected and run on a Thermo-Vanquish UPLC (Thermo Scientific) with a Cortecs T3 (C18), 2.1 mm×150 mm; 1.8 uT3 column and a binary solvent system. Mass spectrometry employed a Thermo Q Exactive instrument with MS/MS data dependent acquisition scan mode and LipidSearch software (Thermo Fisher Scientific)."}, "[6]": {"biological_target": "T1, HNF4α (Mus musculus, UniProt P49698)", "T1 construct": "from tissue; host or cells: liver of C57BL/6 J DIO male mice", "T1 sequence (P49698 1-474)": "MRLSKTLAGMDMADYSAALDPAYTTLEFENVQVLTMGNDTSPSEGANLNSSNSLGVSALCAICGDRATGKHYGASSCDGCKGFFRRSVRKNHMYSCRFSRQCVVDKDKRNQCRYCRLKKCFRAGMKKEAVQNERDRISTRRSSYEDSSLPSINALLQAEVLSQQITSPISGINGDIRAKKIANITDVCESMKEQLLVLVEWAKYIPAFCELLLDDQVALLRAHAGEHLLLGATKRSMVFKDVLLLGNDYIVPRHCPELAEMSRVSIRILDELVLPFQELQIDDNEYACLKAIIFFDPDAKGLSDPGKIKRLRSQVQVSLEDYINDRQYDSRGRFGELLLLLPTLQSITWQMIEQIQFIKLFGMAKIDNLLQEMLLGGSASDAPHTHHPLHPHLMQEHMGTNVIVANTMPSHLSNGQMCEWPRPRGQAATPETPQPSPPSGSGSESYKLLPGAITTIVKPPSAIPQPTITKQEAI", "assay": "hepatic HNF4α expression in DIO mice", "type": "in vivo", "details": "200 mg/kg bid IP, 14 days; for hepatic HNF4α protein (nuclear staining): 200 mg/kg", "experimental": "as §1\nFor dose response experiments, mice were injected intraperitoneally with 10% DMSO as vehicle control or 4 different doses of NCT (30, 60, 120 and 240 mg/kg of body weight) dissolved in 10% DMSO. Mice received 2 doses per day with a 5 h interval between injections for 3 days. To test the effect of NCT (Sundia MediTech Company, Ltd., Custom synthesis), 200 mg/kg was injected IP bid for 14 days. On day 15, mice received a final dose of NCT followed by IP injection with 3 g/kg dextrose. One h later, blood samples were collected and mice were euthanized using pentobarbital. Total mouse, liver and epididymal fat pad weights were measured. Dissected liver samples were washed in cold PBS, cut into small pieces and distributed for analyses. For RNA isolation and ELISA, liver samples were snap frozen using liquid nitrogen and stored at −80° C. […]\nFrozen liver sections were permeabilized using 0.3% Triton-X and incubated in antigen retrieval solution (Antigen retrieval citrate, Biogenex) at sub boiling temperature for 10 min. […] Slides were mounted using fluorescence mounting medium and images were obtained at 40× magnification using an Olympus IX71 fluorescence microscope. Fluorescence intensity of HNF4α-stained nuclei was calculated using MetaMorph TL software (version 7.6.5.0, Olympus)."}, "[7]": {"test_system": "dihydroceramides", "assay": "lipidomic analysis of livers from mice injected IP", "type": "in vivo, mouse", "details": "livers from mice injected IP for 2 weeks", "experimental": "as §3"}, "[8]": {"details": "listed as N-trans-caffeoyltyramine"}}, "note": "Entries after “also recorded” stand apart in the source; their conditions may differ.", "data": [{"compound": "O=C(/C=C/c1ccc(O)c(O)c1)NCCc1ccc(O)cc1", "note": "[NCT, N-trans-caffeoyltyramine]", "values": [{"measurement": "CYP26A1 mRNA level", "setting": "[1]", "value": "induced CYP26a1"}, {"measurement": "HNF4a mRNA", "setting": "[2]", "value": "significantly induced"}, {"measurement": "CYP26a1 mRNA", "setting": "[3]", "value": "induced CYP26a1; also recorded: significantly induced"}, {"measurement": "SPNS2 mRNA", "setting": "[4]", "value": "did not induce a change in SPNS2 expression"}, {"measurement": "dihydroceramide production", "setting": "[5]", "value": "multiple dihydroceramides were increased; also recorded: induced multiple identical dihydroceramides"}, {"measurement": "dihydroceramide production", "setting": "[5]; [8]", "value": "Dihydroceramide was induced"}, {"measurement": "hepatic HNF4α mRNA", "setting": "[6]", "value": "reversed the loss"}, {"measurement": "hepatic HNF4α protein (nuclear staining)", "setting": "[6]", "value": "reversed the loss of HNF4α protein; also recorded: recovery of normal hepatic HNF4α expression"}, {"measurement": "hepatic HNF4α protein (nuclear staining)", "setting": "[6]; [8]", "value": "reversed that reduction; also recorded: increased the HNF4a staining"}, {"measurement": "decrease in ceramide/dihydroceramide ratio in liver", "setting": "[7]", "value": "evident as well"}]}]}
